Columns and labels:
liver gene expression = assay: RNA sequencing of Apoe-/- mouse liver; format: in vivo; details: heat map
Source text: Total RNA was extracted, and cDNA libraries were generated to investigate differences in gene expression. The Illumina sequencing platform was employed for single-end sequencing of the libraries. HISAT2 software (version 2.0.5) was utilized to align the reads to the mouse reference genome in Ensembl. StringTie (version 1.3.3b) was employed to compute raw counts of genes. DESeq2 (version 1.20.0) software was used to normalize the count matrix. Gene sets were established based on each KEGG pathway term and the associated genes, with GSEA conducted using the Java GSEA platform (version 3.0). This analysis utilized the 'Signal2Noise' metric for ranking and adopted a permutation type specific to 'gene sets'. Gene sets displaying FDR values below 0.25 were deemed to hold statistical significance. The expression patterns of pivotal genes within the pathways enriched by GSEA were visually represented through heatmaps, generated by employing the "pheatmap" package within the R programming environment. The relevant data can be accessed via the Gene Expression Omnibus database, using the following accession number: GSE261858.

[1] = system: primary hepatocytes from C57BL/6J mouse; assay: CCK8 cell viability, primary hepatocytes; format: cell-based; details: concentrations below 7.5 μmol/L, 12 h
Protocol: The cellular viability was assessed by conducting CCK8 assays in primary hepatocytes from C57BL/6J mouse and HepG2 cell line. Specifically, 2,000 cells per well were plated in 96-well plates and cultured with different concentrations of ISOGK for 12 h. Following this, cell absorption was quantified using a CCK8 kit (CA1210, Solarbio, Beijing, China), adhering strictly to the manufacturer's guidelines. The presented data represents the findings from three independent experiments, with each experiment consisting of four replicates.

C57BL/6J mice = assay: Safety assessment in normal C57BL/6J mice; format: in vivo, mouse; details: 20 mg/kg/day i.p., 4 weeks, male C57BL/6J
Syrian golden hamsters = assay: High cholesterol diet-fed Syrian golden hamsters; format: in vivo, hamster
Protocol: Syrian golden hamsters were purchased from Vital River Laboratories (Beijing, China). Hamsters were fed a high cholesterol diet and received ISOGK (5 mg/kg/day) for 4 weeks. Before being sacrificed, liver and blood samples were collected at the end of the experiment. The animal study protocol was approved by the Ethics Committee of Hefei University of Technology (approval number HFUT20221031001) and conducted in accordance with the guidelines set forth in the "Guide for the Care and Use of Laboratory Animals," published by the National Institutes of Health (NIH).
Plasma levels of TC, TG, LDL-C, and high-density lipoprotein cholesterol (HDL-C) were determined following the manufacturer's instructions. Liver tissues (30-40 mg) were homogenized in 0.5 mL of cold PBS for hepatic TG and cholesterol measurement. A 0.4 mL homogenate was combined with 1.4 mL of a CHCl3/CH3OH mixture (2:1, v/v) and shaken overnight at room temperature. Following centrifugation at 2,500 × g for a period of 10 min, the organic phase was meticulously transferred and permitted to air-dry. The residual organic material was then reconstituted in 800 μL of ethanol containing 1% Triton X-100, whereby the ethanol served to solubilize the material.
Fast protein liquid chromatography (FPLC) was employed to analyze plasma lipoproteins using 200 μL of pooled plasma samples. The samples were initially filtered through 0.22-µm filters and subsequently loaded onto Tricorn high-performance Superose S-6 10/300GL columns (Amersham Biosciences). Elution was conducted with PBS at a constant flow rate of 0.25 mL/min. The eluted fractions (500 μL each) were subjected to analysis for TG and TC concentrations using the aforementioned commercial assay kits.

Srebf1c and Fasn mRNA = assay: RT-qPCR of lipid synthesis genes after ACLY knockdown in AML12 and Huh7 cells; format: cell-based; details: 5 µM, 50 µM PA, 12 h
Protocol: Total RNA was extracted from cultured cells or animal tissue using RNeasy kits (RN001-50Rxns, YiShan, Shanghai, China). Subsequently, cDNA was generated using a Takara Reverse Transcription Kit (RR037B, Takara, Kyoto, Japan). Subsequently, quantitative real-time polymerase chain reaction (RT-qPCR) assays were conducted using ChamQ SYBR qPCR Master Mix (Q311-02, Vazyme, Nanjing, China), following the reverse transcription. The Roche LC96 real-time PCR detection system was employed for the detection of results, with glyceraldehyde-3-phosphate dehydrogenase (GAPDH) serving as the loading control for the quantification of mRNA levels. The fold change relative to the respective controls was determined using the 2^(^-ΔΔCt) method. Primers were designed using the PrimerQuest software and subsequently synthesised by Sangon Biotech (Shanghai, China).

[2] = hamsters, 5 mg/kg/day i.p., 4 weeks

COc1ccc(-c2cc(=O)c3c(O)cc(O)c(-c4cc(-c5cc(=O)c6c(O)cc(O)cc6o5)ccc4OC)c3o2)cc1 [ISOGK, Isoginkgetin]
expression of fatty acid and cholesterol biosynthesis genes Srebf1, Fasn, Acaca, Cyp51 (liver gene expression): significantly downregulated | cytotoxicity (CCK-8) [1]: no significant cytotoxicity | H&E staining of heart, liver, spleen, lungs, kidneys (C57BL/6J mice): no histological differences | PAS staining of kidney tissues (C57BL/6J mice): no significant difference in glycogen deposits | body weight vs vehicle (C57BL/6J mice): no statistically significant differences | fasting blood glucose (FBG) vs vehicle (C57BL/6J mice): no statistically significant differences | lactate dehydrogenase (LDH) (C57BL/6J mice): no variation | ratio of liver weight to body weight (C57BL/6J mice): no significant change | serum ALT, AST, ALP, BUN, CREA, CK, CK-MB vs vehicle (C57BL/6J mice): did not induce any significant difference | decrease in hepatic TC (Syrian golden hamsters; [2]): 27.53% | decrease in hepatic TG (Syrian golden hamsters; [2]): 64.14% | reduction in serum LDL-C (Syrian golden hamsters; [2]): 56.55% | reduction in serum TC (Syrian golden hamsters; [2]): 36.12% | reduction in serum TG (Syrian golden hamsters; [2]): 46.87% | lipid deposition in liver (Oil Red O) (Syrian golden hamsters; hamsters, 4 weeks): significantly reduced lipid deposition | serum antioxidant indicators (MDA, SOD, ox-LDL) (Syrian golden hamsters; hamsters, 4 weeks): remained unaltered | serum TC and TG distribution (FPLC) (Syrian golden hamsters; hamsters, pooled plasma): significant decrease in serum TC and TG distribution | serum ALT and AST vs vehicle (Syrian golden hamsters; high cholesterol diet-fed hamsters, 5 mg/kg/day i.p., 4 weeks): no significant difference | LDLR and ACLY protein levels in the liver (Syrian golden hamsters; hyperlipidemic hamsters, 5 mg/kg/day, 4 weeks): no significant difference | mRNA expression of Srebf1c and Fasn following ACLY knockdown (Srebf1c and Fasn mRNA): did not demonstrate a further reduction

From PMC11984407, “A natural small molecule isoginkgetin alleviates hypercholesterolemia and atherosclerosis by targeting ACLY” (Theranostics, 2025)
